# Laboratory results: ChEMBL document CHEMBL4732222, “Discovery of novel Hsp90 C-terminal domain inhibitors that disrupt co-chaperone binding” (Bioorg Med Chem Lett, 2021)
# Columns and labels:
# [1] = organism: Homo sapiens; experiment: Inhibition of recombinant biotin-labelled HSP90/GST-labelled PPID interaction (unknown origin) at 500 uM by Alphascreen assay relative to control
# [2] = Inhibition of recombinant biotin-labelled HSP90/GST-labelled PPID interaction (unknown origin) by Alphascreen assay; set-up: species or system Homo sapiens
# [3] = Binding affinity to GST (unknown origin) by fluorescence spectroscopic analysis; format: ADME, Homo sapiens
# [4] = molecular target: T1, Heat shock protein HSP90 (Homo sapiens, UniProt P07900+P08238); experiment: Binding affinity to recombinant human N-terminal GST-tagged HSP90-CTD by fluorescence spectroscopic analysis; format: protein assay
# [5] = molecular target: T1, Heat shock protein HSP90; experiment: Binding affinity to recombinant human N-terminal GST-tagged HSP90-CTD assessed as induction of fluorescence quenching at 1 mM by fluorescence spectroscopic analysis relative to control; format: protein assay
inhibition [1] [%],Activity [5] [%],Structure (SMILES),further results
> 60,,Cc1cc(O)c2c(=O)c(-c3csc(C)n3)coc2c1,
> 60,,Cc1cc2oc(=O)cc(C)c2cc1NC(=O)CCCCl,
> 60,> 30,NC(Cc1c[nH]c2ccc(OCc3ccccc3)cc12)C(=O)O (centres undefined),IC50 [2]: 220 µM; Kd [3]: 83 µM; Kd [4]: 28 µM
> 60,> 30,Cc1nc(CC(=O)c2ccc(O)c(O)c2O)cs1,IC50 [2]: 35 µM; Kd [3]: 310 µM; Kd [4]: 102 µM
,> 30,CC(C)CCn1c(NCCO)nc2c1c(=O)[nH]c(=O)n2C,
> 60,,COc1ccc2[nH]c3c(c2c1)CCNC3c1cccc(O)c1 (centres undefined),
,> 30,COc1ccc(C(=O)Nc2ccccc2C(=O)N[C@H](C(=O)O)C(C)C)cc1,
> 60,,O=C(O)C1Cc2c([nH]c3ccccc23)C(c2c(O)ccc3ccccc23)N1 (centres undefined),
,> 30,CCOC(=O)c1cnc2ccc(OC)cc2c1Nc1ccccc1C(=O)O,
> 60,,CCCCC(NC/C(=C(/C)O)c1cc2c(c(=O)o1)CCCC2)C(=O)O (centres undefined),
,> 30,COc1ccc(C(=O)Nc2ccccc2C(=O)NCCC(=O)O)cc1,
